Literature values, collected in patent US11660375B2, “Product and method for the treatment of bioprosthetic tissues” (Epygon, priority 2017, dated 2023).
Read-outs that look alike come from different tables or passages of the source.

Assays:
[1] = system: porcine aortic valve cusps; conditions: rat subdermal, 60 days, pretreatment pH 7.4 for 24 hours
[2] = system: Porcine aortic valve bioprostheses; conditions: sheep, 150 days, leaflet calcium
[3] = system: pericardium samples pretreated with 0.6% Glutaraldehyde; conditions: after 6 months implantation, juvenile rats, subcutaneous
[4] = oral administration; IPCS, WHO Food Additives Series 32
[5] = at 25° C.

In the case of “2-hydroxypropyl β-Cyclodextrin [HP p-CD]”, the “toxicity on parenteral administration” value is listed as “don't show any toxicity” and the “toxicity on parenteral administration” value (listed as 2-hydroxypropyl β-Cyclodextrin) is listed as “appear to be safe”.

In the case of `CCO` [60% Ethanol, Ethanol], the calcium level ([1]; listed as 60.0% Ethanol) is given as 28.5±12.0 μg/mg tissue.

In the case of `CCO` [80% Ethanol, Ethanol], the calcium level ([1]; listed as 80.0% Ethanol) is given as 1.87±0.29 μg/mg tissue and the Ca [2] is given as 5.22 ± 2.94.

For `CCO` [Ethanol], the Ca (porcine aortic cusps) is listed as 13.3+/−5.6 μg/mg tissue.

In the case of `OC[C@H]1O[C@H](O[C@H]2[C@H](O)[C@@H](O)[C@@H](OC[C@H]3O[C@@H]4O[C@H]5[C@H](O)[C@@H](O)[C@@H](O[C@H]6[C@H](O)[C@@H](O)[C@@H](O[C@H]7[C@H](O)[C@@H](O)C(O[C@H]8[C@H](O)[C@@H](O)[C@@H](O[C@H]9[C@H](O)[C@@H](O)[C@@H](O[C@H]%10[C@H](O)[C@@H](O)[C@@H](O[C@H]3[C@H](O)[C@H]4O)O[C@@H]%10CO)O[C@@H]9CO)O[C@@H]8CO)O[C@@H]7CO)O[C@@H]6CO)O[C@@H]5CO)O[C@@H]2CO)[C@H](O)[C@@H](O)[C@@H]1O` [Maltosyl β-Cyclodextrin], the “toxicity on parenteral administration” value is listed as “appear to be safe”.

In the case of `CCCCCCCC/C=C\CCCCCCCC(=O)OCCOCC(OCCO)C1OCC(OCCO)C1OCCO` (stereo not drawn) [surfactant, Tween 80], the calcium content [3] is given as 42.9±12.7 μg/mg dry tissue.

For `OC[C@H]1O[C@@H]2O[C@H]3[C@H](O)[C@@H](O)[C@@H](O[C@H]4[C@H](O)[C@@H](O)[C@@H](O[C@H]5[C@H](O)[C@@H](O)[C@@H](O[C@H]6[C@H](O)[C@@H](O)[C@@H](O[C@H]7[C@H](O)[C@@H](O)[C@@H](O[C@H]1[C@H](O)[C@H]2O)O[C@@H]7CO)O[C@@H]6CO)O[C@@H]5CO)O[C@@H]4CO)O[C@@H]3CO` [α-Cyclodextrins, α-Cyclodextrin], the “toxicity on parenteral administration” value is listed as “don't show any toxicity”.

For `OC[C@H]1O[C@@H]2O[C@H]3[C@H](O)[C@@H](O)[C@@H](O[C@H]4[C@H](O)[C@@H](O)[C@@H](O[C@H]5[C@H](O)[C@@H](O)[C@@H](O[C@H]6[C@H](O)[C@@H](O)[C@@H](O[C@H]7[C@H](O)[C@@H](O)[C@@H](O[C@H]8[C@H](O)[C@@H](O)[C@@H](O[C@H]1[C@H](O)[C@H]2O)O[C@@H]8CO)O[C@@H]7CO)O[C@@H]6CO)O[C@@H]5CO)O[C@@H]4CO)O[C@@H]3CO` [β-Cyclodextrin], the acceptable daily intake [4] is listed as 5 mg/kg of body weight and the “toxicity on parenteral administration” value is listed as “nephrotoxic”.

In the case of `OC[C@H]1O[C@@H]2O[C@H]3[C@H](O)[C@@H](O)[C@@H](O[C@H]4[C@H](O)[C@@H](O)[C@@H](O[C@H]5[C@H](O)[C@@H](O)[C@@H](O[C@H]6[C@H](O)[C@@H](O)[C@@H](O[C@H]7[C@H](O)[C@@H](O)[C@@H](O[C@H]8[C@H](O)[C@@H](O)[C@@H](O[C@H]9[C@H](O)[C@@H](O)[C@@H](O[C@H]1[C@H](O)[C@H]2O)O[C@@H]9CO)O[C@@H]8CO)O[C@@H]7CO)O[C@@H]6CO)O[C@@H]5CO)O[C@@H]4CO)O[C@@H]3CO` [γ-Cyclodextrin], the “toxicity on parenteral administration” value is listed as “appear to be safe”.

For “Sulfobutyl Ether7 β-Cyclodextrin [SBE7 β-CD]”, the water solubility [5] is listed as about 70 g/100 ml and the “toxicity on parenteral administration” value is listed as “appear to be safe”.

In the case of Sulphated β-Cyclodextrin, the “toxicity on parenteral administration” value is given as “appear to be safe”.
